Patent US20090048301A1 (IMCLONE SYSTEMS INCORPORATED, priority 2003, published 2009)

How the values were obtained:
[1] = tested on: A431, human epidermoid carcinoma cells; assay: Cell cycle analysis (FACS), mitotic arrest in G2/M; format: cell-based; conditions: Homo sapiens, A-431, 24 h, read-out: FACS Assay: concentration required to achieve inhibition in FACS assay
Description: The cell cycle analysis was performed as follows. Cancer cells (A431, human epidennoid carcinoma cells) were maintained in culture in D-MEM media with 10% FBS and 1 mg/ml glutamate. Prior to experiment, cells were plated onto 6-well plates for a final density of 500,000 cells/well at the time of treatment. Cells were treated with the compounds of the invention at a concentration of about 0.01 to 1 μM final concentrations (final 0.1% DMSO) for 24 hours, then trypsinized, collected, rinsed in PBS (phosphate buffered saline), and fixed in 70% cold ethanol overnight at 4° C. The cells were then rinsed with PBS, resuspended in PBS with 0.2% Tween, RNAse was added (final 1 μg/ml), cells were incubated at 37° C. for 15 min, followed by addition of Propidium Iodide (final 50 μg/ml), and a 30 minute incubation at room temperature. DNA ploidy was analyzed using flow cytometers (Epics Excel, Beckman-Coulter, or Guava PCA-96, Guava Technologies) and mitotic arrest characterized by massive accumulation of cells in the G2/M phase of cell cycle.
Cancer cells (A431, human epidermoid cells) were maintained in culture in D-MEM media with 10% FBS and 1 mg/ml glutamate. Prior to experiment, cells are plated onto 6-well plates for a final density of 500,000 cells/well at the time of treatment. Cells were treated with compounds at 0.01-1 μM final concentrations (final […] DMS 0) for 24 hours, then trypsinized, collected, rinsed in PBS (phosphate buffered saline), and fixed in 70% cold ethanol overnight at 4° C. Cells were then rinsed with PBS, resuspended in PBS with 0.2% Tween, RNAse was added (final 1 μg/ml), cells were incubated at 37° C. for 15 min, followed by addition of Propidium Iodide (final 50 μg/ml), and a 30 minute incubation at room temperature. DNA ploidy was analyzed using cell sorters (Epics Excel, Beckman-Coulter, or Guava PCA-96, Guava Technologies) and mitotic arrest characterized by massive accumulation of cells in the G2/M phase of cell cycle.

bovine tubulin = assay: In vitro tubulin polymerization assay (turbidity at 340 nm); format: biochemical; conditions: 10 μM compound, 30 minute data point, vs 1% DMSO control
Procedure, shortened: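 Bovine tubulin (97%, <3% MAPs) at 3 mg/ml final in G-PEM pH 7 with 1 mM GTP and 5% glycerol, added cold to compound wells at 37° C (1% DMSO final). A340 read each minute for 30 min; percent inhibition from 30-min point versus DMSO control.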

Fc1ccc(CNc2ncccc2-c2nnc(Nc3ccc4c(c3)OCCO4)[nH]2)cc1F [Compound 44, (3,4-Difluoro-benzyl)-{3-[5-(2,3-dihydro-benzo[1,4]dioxin-6-ylamino)-4H-[1,2,4]triazol-3-yl]-pyridin-2-yl}-amine]
minimal effective concentration [1]: 1 µM
Tubulin Assay: percent inhibition at 10 μM based on 30 minute data (bovine tubulin): 84%

COc1cccc(Nc2nnc(-c3cccnc3NCc3ccc(F)c(F)c3)[nH]2)c1 [Compound 45, (3,4-Difluoro-benzyl)-{3-[5-(3-methoxy-phenylamino)-4H-[1,2,4]triazol-3-yl]-pyridin-2-yl}-amine]
minimal effective concentration [1]: 1 µM
Tubulin Assay: percent inhibition at 10 μM based on 30 minute data (bovine tubulin): 83%

COc1cc(Nc2ncccc2-c2nnc(Nc3ccc4c(c3)OCCO4)[nH]2)cc(OC)c1 [Compound 50, {3-[5-(2,3-Dihydro-benzo[1,4]dioxin-6-ylamino)-4H-[1,2,4]triazol-3-yl]-pyridin-2-yl}-(3,5-dimethoxy-phenyl)-amine]
minimal effective concentration [1]: 0.1 µM
Tubulin Assay: percent inhibition at 10 μM based on 30 minute data (bovine tubulin): 90%

COc1ccc(CNc2ncccc2-c2nnc(Nc3ccc4c(c3)OCCO4)[nH]2)cc1 [Compound 51, {3-[5-(2,3-Dihydro-benzo[1,4]dioxin-6-ylamino)-4H-[1,2,4]triazol-3-yl]-pyridin-2-yl}-(4-methoxy-benzyl)-amine]
minimal effective concentration [1]: 1 µM
Tubulin Assay: percent inhibition at 10 μM based on 30 minute data (bovine tubulin): 68%

COc1cc(Nc2ncccc2-c2nnc(NCC3CCCO3)[nH]2)cc(OC)c1 (stereo not drawn) [Compound 56, (3,5-Dimethoxy-phenyl)-(3-{5-[(tetrahydro-furan-2-ylmethyl)-amino]-4H-[1,2,4]triazol-3-yl}-pyridin-2-yl)-amine]
minimal effective concentration [1]: 1 µM
Tubulin Assay: percent inhibition at 10 μM based on 30 minute data (bovine tubulin): 97%

COc1cccc(CNc2nnc(-c3cccnc3Nc3cc(OC)cc(OC)c3)[nH]2)c1 [Compound 58, (3,5-Dimethoxy-phenyl)-{3-[5-(3-methoxy-benzylamino)-4H-[1,2,4]triazol-3-yl]-pyridin-2-yl}-amine]
minimal effective concentration [1]: 0.1 µM
Tubulin Assay: percent inhibition at 10 μM based on 30 minute data (bovine tubulin): 100%

COc1ccc(CNc2nnc(-c3cccnc3Nc3cc(OC)cc(OC)c3)[nH]2)cc1 [Compound 59, (3,5-Dimethoxy-phenyl)-{3-[5-(4-methoxy-benzylamino)-4H-[1,2,4]triazol-3-yl]-pyridin-2-yl}-amine]
minimal effective concentration [1]: 1 µM
Tubulin Assay: percent inhibition at 10 μM based on 30 minute data (bovine tubulin): 88%

COc1cc(Nc2ncccc2-c2nnc(Nc3cccc([N+](=O)[O-])c3)[nH]2)cc(OC)c1 [Compound 60a, (3,5-dimethoxy-phenyl)-{3-[5-(3-nitro-phenylamino)-4H-[1,2,4]triazol-3-yl]-pyridin-2-yl}-amine]
minimal effective concentration [1]: 0.1 µM
Tubulin Assay: percent inhibition at 10 μM based on 30 minute data (bovine tubulin): 95%

c1cnc(OCc2ccc3c(c2)OCO3)c(-c2nnc(Nc3ccc4c(c3)OCCO4)[nH]2)c1 [Compound 71, {5-[2-(Benzo[1,3]dioxol-5-ylmethoxy)-pyridin-3-yl]-4H-[1,2,4]triazol-3-yl}-(2,3-dihydro-benzo[1,4]dioxin-6-yl)-amine]
minimal effective concentration [1]: 0.1 µM
Tubulin Assay: percent inhibition at 10 μM based on 30 minute data (bovine tubulin): 83%

c1cnc(OCc2ccc3c(c2)OCO3)c(-c2nnc(Nc3ccc4c(c3)OCO4)[nH]2)c1 [Compound 72, Benzo[1,3]dioxol-5-yl-{5-[2-(benzo[1,3]dioxol-5-ylmethoxy)-pyridin-3-yl]-4H-[1,2,4]triazol-3-yl}-amine]
minimal effective concentration [1]: 0.1 µM
Tubulin Assay: percent inhibition at 10 μM based on 30 minute data (bovine tubulin): 100%

COc1cccc(Nc2nnc(-c3cccnc3OCc3ccc4c(c3)OCO4)[nH]2)c1 [Compound 73, {5-[2-(Benzo[1,3]dioxol-5-ylmethoxy)-pyridin-3-yl]-4H-[1,2,4]triazol-3-yl}-(3-methoxy-phenyl)-amine]
minimal effective concentration [1]: 1 µM
Tubulin Assay: percent inhibition at 10 μM based on 30 minute data (bovine tubulin): 70%

COc1cc(Nc2ncccc2-c2nnc(-c3ccc(S(C)(=O)=O)cc3)[nH]2)cc(OC)c1 [Compound 74, (3,5-Dimethoxy-phenyl)-{3-[5-(4-methanesulfonyl-phenyl)-4H-[1,2,4]triazol-3-yl]-pyridin-2-yl}-amine]
minimal effective concentration [1]: 0.1 µM
Tubulin Assay: percent inhibition at 10 μM based on 30 minute data (bovine tubulin): 87%

CS(=O)(=O)c1ccc(-c2nnc(-c3cccnc3Nc3cccc(S(N)(=O)=O)c3)[nH]2)cc1 [Compound 92, 3-{3-[5-(4-Methanesulfonyl-phenyl)-4H-[1,2,4]triazol-3-yl]-pyridin-2-ylamino}-benzenesulfonamide]
minimal effective concentration [1]: 10 µM
Tubulin Assay: percent inhibition at 10 μM based on 30 minute data (bovine tubulin): 74%

CS(=O)(=O)c1ccc(-c2nnc(-c3cccnc3NCc3ccc4c(c3)CCO4)[nH]2)cc1 [Compound 97, (2,3-Dihydro-benzofuran-5-ylmethyl)-{3-[5-(4-methanesulfonyl-phenyl)-4H-[1,2,4]triazol-3-yl]-pyridin-2-yl}-amine]
minimal effective concentration [1]: 1 µM
Tubulin Assay: percent inhibition at 10 μM based on 30 minute data (bovine tubulin): 77%

CS(=O)(=O)c1ccc(-c2nnc(-c3cccnc3NCc3ccco3)[nH]2)cc1 [Compound 98, Furan-2-ylmethyl-{3-[5-(4-methanesulfonyl-phenyl)-4H-[1,2,4]triazol-3-yl]-pyridin-2-yl}-amine]
minimal effective concentration [1]: 1 µM
Tubulin Assay: percent inhibition at 10 μM based on 30 minute data (bovine tubulin): 83%

COc1cccc(-c2nnc(-c3cccnc3NCc3ccc(F)c(F)c3)[nH]2)c1 [Compound 100, (3,4-Difluoro-benzyl)-{3-[5-(3-methoxy-phenyl)-4H-[1,2,4]triazol-3-yl]-pyridin-2-yl}-amine]
minimal effective concentration [1]: 10 µM
Tubulin Assay: percent inhibition at 10 μM based on 30 minute data (bovine tubulin): 70%

Fc1ccc(CNc2ncccc2-c2nnc(-c3ccc4c(c3)OCO4)[nH]2)cc1F [Compound 101, [3-(5-Benzo[1,3]dioxol-5-yl-4H-[1,2,4]triazol-3-yl)-pyridin-2-yl]-(3,4-difluoro-benzyl)-amine]
minimal effective concentration [1]: 1 µM
Tubulin Assay: percent inhibition at 10 μM based on 30 minute data (bovine tubulin): 66%

CS(=O)(=O)c1ccc(-c2nnc(-c3cccnc3NCc3ccc(F)c(F)c3)[nH]2)cc1 [Compound 102, (3,4-Difluoro-benzyl)-{3-[5-(4-methanesulfonyl-phenyl)-4H-[1,2,4]triazol-3-yl]-pyridin-2-yl}-amine]
minimal effective concentration [1]: 0.1 µM
Tubulin Assay: percent inhibition at 10 μM based on 30 minute data (bovine tubulin): 88%

CS(=O)(=O)c1ccc(-c2nnc(-c3cccnc3NCC3COCCO3)[nH]2)cc1 (stereo not drawn) [Compound 103, [1,4]Dioxan-2-ylmethyl-{3-[5-(4-methanesulfonyl-phenyl)-4H-[1,2,4]triazol-3-yl]-pyridin-2-yl}-amine]
minimal effective concentration [1]: 1 µM
Tubulin Assay: percent inhibition at 10 μM based on 30 minute data (bovine tubulin): 80%

CS(=O)(=O)c1ccc(-c2nnc(-c3cccnc3NCc3ccc4c(c3)OCCO4)[nH]2)cc1 [Compound 105, (2,3-Dihydro-benzo[1,4]dioxin-6-ylmethyl)-{3-[5-(4-methanesulfonyl-phenyl)-4H-[1,2,4]triazol-3-yl]-pyridin-2-yl}-amine]
minimal effective concentration [1]: 1 µM
Tubulin Assay: percent inhibition at 10 μM based on 30 minute data (bovine tubulin): 91%

CS(=O)(=O)c1ccc(-c2nnc(-c3cccnc3NCC3CCCO3)[nH]2)cc1 (stereo not drawn) [Compound 106, {3-[5-(4-Methanesulfonyl-phenyl)-4H-[1,2,4]triazol-3-yl]-pyridin-2-yl}-(tetrahydro-furan-2-ylmethyl)-amine]
minimal effective concentration [1]: 0.1 µM
Tubulin Assay: percent inhibition at 10 μM based on 30 minute data (bovine tubulin): 79%

CS(=O)(=O)c1ccc(-c2nnc(-c3cccnc3NCc3ccc(F)cc3)[nH]2)cc1 [Compound 108, (4-Fluoro-benzyl)-{3-[5-(4-methanesulfonyl-phenyl)-4H-[1,2,4]triazol-3-yl]-pyridin-2-yl}-amine]
minimal effective concentration [1]: 0.1 µM
Tubulin Assay: percent inhibition at 10 μM based on 30 minute data (bovine tubulin): 91%

c1ccc(-c2nnc(Nc3ccc4c(c3)OCCO4)[nH]2)c(NCc2ccc3[nH]ncc3c2)c1 [Compound 117, (2,3-Dihydro-benzo[1,4]dioxin-6-yl)-(5-{2-[(1H-indazol-5-ylmethyl)-amino]-phenyl}-4H-[1,2,4]triazol-3-yl)-amine]
minimal effective concentration [1]: 1 µM
Tubulin Assay: percent inhibition at 10 μM based on 30 minute data (bovine tubulin): 84%

c1ccc(-c2nnc(Nc3ccc4c(c3)OCO4)[nH]2)c(NCc2ccc3[nH]ncc3c2)c1 [Compound 119, Benzo[1,3]dioxol-5-yl-(5-{2-[(1H-indazol-5-ylmethyl)-amino]-phenyl}-4H-[1,2,4]triazol-3-yl)-amine]
minimal effective concentration [1]: 1 µM
Tubulin Assay: percent inhibition at 10 μM based on 30 minute data (bovine tubulin): 76%
